According to patent US10647959B2, “Cell-friendly inverse opal hydrogels for cell encapsulation, drug and protein delivery, and functional nanoparticle encapsulation” (President and Fellows of Harvard College, priority 2011, dated 2020):

Test system: Mouse mesenchymal stem cells (MSCs)
Details: 50 mM EDTA solution, up to 3 h incubation, fluorescent images (FIG. 5a)
Description: Subsequently, the viability of cells was measured with a live/dead cell assay by using calcein AM and ethidium homodimer-1.

Question: Which “toxicity of the EDTA solution to the cells” value does the source give for `O=C(O)CN(CCN(CC(=O)O)CC(=O)O)CC(=O)O` [EDTA, ethylenediaminetetraacetic acid] here?
Answer: no significant toxicity
